Source: US6136825A, “Sulfonamide compounds having 5-HT receptor activity” (Knoll Aktiengesellschaft, priority 1996, dated 2000)
Structures can show the parent of a compound that is named as a salt.

Tests used:
5-HT1A = biological target: T1, 5-HT1A (Rattus norvegicus, UniProt P19327); test: inhibition of tritiated ligand ([3H]8-OH-DPAT) binding to 5-HT1A receptors, rat hippocampal tissue; design: species or system male Charles River CD rats; conditions: for Ki: 25° C., 30 minutes, pH 7.7; for inhibition at 1 µM: at 10^-6 M, read-out: % displacement of specific binding, 5-HT1A
T1 construct: Hippocampal tissue from the brains of male Charles River CD rats; from tissue; host or cells: rat hippocampus (male Charles River CD rats), crude membrane pellet
T1 sequence (P19327 1-422): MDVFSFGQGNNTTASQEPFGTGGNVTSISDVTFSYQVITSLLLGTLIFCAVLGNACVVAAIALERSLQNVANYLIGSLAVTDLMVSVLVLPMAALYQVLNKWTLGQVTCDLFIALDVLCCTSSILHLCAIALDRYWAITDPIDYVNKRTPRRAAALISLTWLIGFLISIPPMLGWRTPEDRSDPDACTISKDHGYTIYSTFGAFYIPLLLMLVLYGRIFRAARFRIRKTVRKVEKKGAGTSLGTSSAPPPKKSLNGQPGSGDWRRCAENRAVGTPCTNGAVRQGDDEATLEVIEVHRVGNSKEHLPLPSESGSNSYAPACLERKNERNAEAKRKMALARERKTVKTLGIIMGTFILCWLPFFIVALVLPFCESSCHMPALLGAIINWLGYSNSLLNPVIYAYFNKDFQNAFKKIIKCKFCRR
Experimental: Hippocampal tissue from the brains of male Charles River CD rats weighing between 150-250 g were homogenised in ice-cold 50 mM Tris-HCl buffer (pH 7.7) when measured at 25° C., 1:40 w/v) and centrifuged at 30,000 g at 4° C. for 10 minutes. The pellet was rehomogenised in the same buffer, incubated at 37° C. for 10 minutes and centrifuged at 30,000 g at 4° C. for 10 minutes. The final pellet was resuspended in 50 mM Tris-HCl buffer (pH 7.7) containing 4 mM CaCl2, 0.1% L-ascorbic acid and 10 μM pargyline hydrochloride (equivalent to 6.25 mg wet weight of tissue/ml) and used immediately in the binding assay. Aliquots (400 μl; equivalent to 2.5 mg wet weight of tissue/tube) of this suspension were added to tubes containing the ligand (50 μl; 2 nM) and distilled water (50 μl; total binding) or 5-HT (50 μl; 10 μM; non-specific binding) or test compound (50 μl; at a single concentration of 10^-6 M or at 10 concentrations ranging from 10^-11 -10^-3 M). The ligand was [^3 H]8-hydroxy-2-(dipropylamino)tetralin ([^3 H]8-OH-DPAT) and the mixture was incubated at 25° C. for 30 minutes before the incubation was terminated by rapid filtration.
The filters were washed with ice-cold Tris-HCl buffer and dried. The filters were punched out into vials, scintillation fluid added and radioactivity determined by liquid scintillation counting. The percentage displacement of specific binding of the tritiated ligand was calculated for the single concentration (10^-6 M) of test compound. Displacement curves were then produced for those compounds which displaced ≥50% of specific binding of the tritiated ligand at 10^-6 M using a range of concentrations of the compound. The concentration which gave 50% inhibition of specific binding (IC50) was obtained from the curve. The inhibition coefficient Ki was then calculated using the formula [formula] in which [ligand] is the concentration of the tritiated ligand used and KD Is the equilibrium dissociation constant for the ligand.

[1] = biological target: T2, D2-like dopamine receptors (Rattus norvegicus, UniProt P61169); test: inhibition of tritiated (S)-sulpiride binding to D2-like dopamine receptors, rat striatal tissue; design: species or system male Charles River CD rats; conditions: for Ki: 4° C., 40 minutes, pH 7.7; for inhibition at 1 µM: at 10^-6 M, read-out: % displacement of specific binding, D2-like
T2 construct: Striatal tissue from the brains of male Charles River CD rats; from tissue; host or cells: rat striatum (male Charles River CD rats), crude membrane pellet
T2 sequence (P61169 whole entry): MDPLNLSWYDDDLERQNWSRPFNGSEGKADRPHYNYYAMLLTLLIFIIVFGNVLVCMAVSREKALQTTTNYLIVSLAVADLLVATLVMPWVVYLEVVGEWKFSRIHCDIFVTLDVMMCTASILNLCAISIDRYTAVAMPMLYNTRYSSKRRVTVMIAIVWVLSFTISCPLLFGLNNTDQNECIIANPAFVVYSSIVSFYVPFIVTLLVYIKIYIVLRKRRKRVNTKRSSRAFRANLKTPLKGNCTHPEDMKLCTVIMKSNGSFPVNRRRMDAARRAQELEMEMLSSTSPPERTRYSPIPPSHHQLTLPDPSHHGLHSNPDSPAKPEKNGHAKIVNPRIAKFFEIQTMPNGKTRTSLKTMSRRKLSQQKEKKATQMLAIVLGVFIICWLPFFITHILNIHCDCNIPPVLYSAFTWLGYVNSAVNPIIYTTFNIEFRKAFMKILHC
Experimental: Striatal tissue from the brains of male Charles River CD rats weighing between 140-250 g were homogenised in ice-cold 50 mM Tris-HCl buffer (pH 7.7 when measured at 25° C.) and centrifuged at 40,000 g for 10 minutes. The pellet was resuspended in Tris salts buffer (50 mM Tris-HCl buffer containing 120 mM NaCl, 5 mM KCl, 2 mM CaCl2 and 1 mM MgCl2 with the addition of 6 mM ascorbic acid; pH 7.7 when measured at 25° C.), and again centrifuged at 40,000 g for 10 minutes. The final pellet was stored at -80° C. Before each test the pellet was resuspended in Tris salts buffer (equivalent to 2 mg wet weight of tissue/ml). Aliquots (720 μl; equivalent to 1.44 mg wet weight of tissue/tube) of this suspension were then added to tubes containing the ligand (40 μl; 1 nM) and Tris salts buffer (40 μl; total binding) or spiroperidol (40 μl; 10 nM; non-specific binding) or test compound (40 μl; at a single concentration of 10^-6 M or at 6 concentrations ranging from 10^-11 -10^-4 M). The ligand was tritiated (S)-sulpiride and the mixture was incubated at 4° C. for 40 minutes before the incubation was terminated by rapid filtration.
The filters were washed with ice-cold Tris-HCl buffer and dried. The filters were punched out in to vials, scintillation fluid added and were left for about 20 hours before being counted by scintillation spectrophotometry. The percentage displacement of specific binding of the tritiated ligand was calculated for the single concentration (10^-6 M) of test compound. Displacement curves were then produced over a range of concentrations for those compounds which displaced ≥50% of specific binding of the tritiated ligand at 10^-6 M. The concentration which gave a 50% inhibition of specific binding (IC50) was obtained from the curve. The inhibition coefficient Ki was then calculated using the formula [formula] in which [ligand] is the concentration of the tritiated ligand used and KD is the equilibrium dissociation constant for the ligand.

| Structure (SMILES) | Ki (5-HT1A) | Ki [1] | inhibition at 1 µM (5-HT1A) | inhibition at 1 µM [1] |
| --- | --- | --- | --- | --- |
| O=[N+]([O-])c1ccc(S(=O)(=O)NCC2CCN(C[C@H]3COc4ccc(Cl)cc4O3)CC2)cc1 [Example 4, (S)-(-)-N-{[1-(7-chloro-1,4-benzodioxan-2-ylmethyl)-4-piperidyl]-methyl}-4-nitrobenzenesulphonamide] | 15 nM | 105 nM |  |  |
| O=S(=O)(NCC1CCN(C[C@H]2COc3cc4c(cc3O2)OCO4)CC1)c1cccc(Cl)c1Cl [Example 49, (S)-(-)-2,3-Dichloro-N-{[1-(^6,^7-methylenedioxy-1,4-benzodioxan-2-ylmethyl)-4-piperidyl]methyl}benzenesulphonamide] |  |  | 77% | 89% |
| O=S(=O)(NCC1CCN(C[C@H]2COc3ccc(C(F)(F)F)cc3O2)CC1)c1cccc(Cl)c1Cl [Example 14, (S)-(-)-2,3-dichloro-N-{[1-(7-trifluoromethyl-1,4-benzodioxan-2-ylmethyl)-4-piperidyl]methyl}benzenesulphonamide] | 25 nM | 111 nM |  |  |
| CC(=O)Nc1ccc(S(=O)(=O)NCC2CCN(C[C@H]3COc4ccc(Br)cc4O3)CC2)cc1 [Example 44, (S)-(-)-4-Acetamido-N-{[1-(7-bromo-1,4-benzodioxan-2-ylmethyl}-4-piperidyl]methyl)benzenesulphonamide] | 14 nM | 23 nM |  |  |
| O=S(=O)(NCC1CCN(C[C@H]2COc3ccc(Cl)cc3O2)CC1)c1cc(OCC(F)(F)F)ccc1OCC(F)(F)F [Example 16, (S)-N-{[1-(7-Chloro-1,4-benzodioxan-2-ylmethyl)-4-piperidyl]methyl}-2,5-bis(2,2,2-trifluoroethoxy)benzenesulphonamide] |  | 258 nM | 84% |  |
| O=[N+]([O-])c1ccc(S(=O)(=O)NCC2CCN(C[C@H]3COc4ccc(Cl)cc4O3)CC2)c([N+](=O)[O-])c1 [Example 15, (S)-N-{[1-(7-Chloro-1,4-benzodioxan-2-ylmethyl)-4-piperidyl]methyl}-2,4-dinitrobenzenesulphonamide] |  | 212 nM | 82% |  |
| COc1ccc(S(=O)(=O)NCC2CCN(C[C@H]3COc4ccc(Cl)cc4O3)CC2)cc1OC [Example 6, (S)-(-)-N-{[1-(7-chloro-1,4-benzodioxan-2-ylmethyl)-4-piperidyl]methyl}-3,4-dimethoxybenzenesulphonamide] | 20 nM | 40.2 nM |  |  |
| COc1ccc(OC)c(S(=O)(=O)NCC2CCN(C[C@H]3COc4ccc(Cl)cc4O3)CC2)c1 [Example 32, (S)-N-{[1-(7-Chloro-1,4-benzodioxan-2-ylmethyl)-4-piperidyl]methyl}-2,5-dimethoxybenzenesulphonamide] |  | 285 nM | 87% |  |
| COc1ccc(S(=O)(=O)NCC2CCN(C[C@H]3COc4ccc(Cl)cc4O3)CC2)cc1 [Example 9, (S)-(-)-N-{[1-(7-chloro-1,4-benzodioxan-2-ylmethyl)-4-piperidyl]-methyl}-4-methoxybenzenesulphonamide] | 42 nM | 96.4 nM |  |  |
| Cc1c([N+](=O)[O-])cc(S(=O)(=O)NCC2CCN(C[C@H]3COc4ccc(Cl)cc4O3)CC2)cc1[N+](=O)[O-] [Example 26, (S)-N-{[1-(7-Chloro-1,4-benzodioxan-2-ylmethyl)-4-piperidyl]methyl}-4-methyl-3,5-dinitrobenzenesulphonamide] |  |  | 88% | 87% |
| O=S(=O)(NCC1CCN(C[C@H]2COc3ccc(Cl)cc3O2)CC1)c1cccc(C(F)(F)F)c1 [Example 28, (S)-N-{[1-(7-Chloro-1,4-benzodioxan-2-ylmethyl)-4-piperidyl]methyl}-3-trifluoromethylbenzenesulphonamide] |  | 352 nM | 68% |  |
| COc1cc(C)c(S(=O)(=O)NCC2CCN(C[C@H]3COc4ccc(Cl)cc4O3)CC2)c(C)c1C [Example 19, (S)-N-{[1-(7-Chloro-1,4-benzodioxan-2-ylmethyl)-4-piperidyl]methyl}-4-methoxy-2,3,6-trimethylbenzenesulphonamide] |  | 306 nM | 55% |  |
| O=S(=O)(c1ccccn1)N1CCC(CNC[C@H]2COc3ccc(Cl)cc3O2)CC1 [Example 2, (S)-(-)-4-[N-(7-chloro-1,4-benzodioxan-2-ylmethyl)aminomethyl]-1-(2-pyridinesulphonyl)piperidine 0.8 hydrate] | 11.4 nM | 27.9 nM |  |  |
| O=S(=O)(NCC1CCN(C[C@H]2COc3ccc(Cl)cc3O2)CC1)c1ccccn1 [Example 1, (S)-(-)-N-{[1-(7-chloro-1,4-benzodioxan-2-ylmethyl)-4-piperidyl]methyl}pyridine-2-sulphonamide monohydrochloride 0.6 hydrate] | 86.8 nM | 29.4 nM |  |  |

More lines, now with the values ahead:

| Ki (5-HT1A) | Ki [1] | inhibition at 1 µM (5-HT1A) | inhibition at 1 µM [1] | Structure (SMILES) |
| --- | --- | --- | --- | --- |
|  |  | 93% | 106% | O=S(=O)(NCC1CCN(C[C@H]2COc3ccc(Cl)cc3O2)CC1)c1ccccc1Cl [Example 41, (S)-(-)-2-Chloro-N-{[1-(7-chloro-1,4-benzodioxan-2-ylmethyl)-4-piperidyl]methyl}benzenesutphonamide] |
|  |  | 80% | 84% | O=S(=O)(NCC1CCN(C[C@H]2COc3ccc(Cl)cc3O2)CC1)c1ccc(F)c(Cl)c1 [Example 42, (S)-(-)-3-Chloro-N-{[1-(7-chloro-1,4-benzodioxan-2-ylmethyl)-4-piperidyl]methyl}-4-fluoro-benzenesulphonamide] |
| 16 nM | 48 nM |  |  | O=S(=O)(NCC1CCN(C[C@H]2COc3ccc(Br)cc3O2)CC1)c1ccc(F)cc1F [Example 47, (S)-(-)-N-{[1-(7-Bromo-1,4-benzodioxan-2-ylmethyl)-4-piperidyl]methyl}-2,4-difluorobenzenesulphonamide] |
|  |  | 96% | 106% | O=S(=O)(NCC1CCN(C[C@H]2COc3ccc(Br)cc3O2)CC1)c1ccccc1Cl [Example 46, (S)-(-)-N-{[1-(7-Bromo-1,4-benzodioxan-2-ylmethyl)-4-piperidyl]methyl}-2-chlorobenzenesulphonamide] |
|  | 438 nM | 98% |  | O=S(=O)(NCC1CCN(C[C@H]2COc3ccc(Cl)cc3O2)CC1)c1c(F)c(Br)cc(F)c1Br [Example 39, (S)-2,5-Dibromo-N-{[1-(7-chloro-1,4-benzodioxan-2-ylmethyl)-4-piperidyl]methyl}-3,6-difluorobenzenesulphonamide] |
| 20 nM | 102 nM |  |  | O=S(=O)(NCC1CCN(C[C@H]2COc3ccc(Br)cc3O2)CC1)c1cccc(Cl)c1Cl [Example 13, (S)-(-)-N-{[1-(7-bromo-1,4-benzodioxan-2-ylmethyl)-4-piperidyl]methyl}-2,3-dichlorobenzensulphonamide] |
